What all share (format): cell-based, human
Test [1] deals with FaDu cells. The experiment in a line: Inhibition assay of cancer cell sphere-forming ability (Test Example 2), FaDu. The conditions noted are these: FaDu cells, Ultra-Low Attachment plate, serum-free DMEM/F12 with B27, EGF, bFGF, insulin, 4 days, Cell Titer-Glo, read-out: IC50 (μM) FaDu, concentration for 50% inhibition of cell proliferation (Sphere IC50 value). As to the method: (§1) HCT-116 cells (derived from human colon adenocarcinoma), HT-29 cells (derived from human colon cancer), FaDu cells (derived from human hypopharynx cancer) were obtained from American Type Culture Collection (ATCC). […] HCT-116 cells, HT-29 cells, and FaDu cells were seeded onto 384 Well Black Clear Bottom Ultra-Low Attachment Microplate (Corning Cat. […] A test substance was added so that the final concentration of DMSO is 0.1%, and then cultured for 4 days. […] A test shown in Test example 2 was carried out for compounds obtained in the Examples.
(In general: In ATP-based viability assays light output follows the ATP content of the culture.)

Test [2] relates to HCT-116 cells. The experiment in a line: Proliferation inhibition assay of cancer cells (Test Example 1), HCT-116. The conditions noted are these: HCT-116 cells, cultured for 4 days, Cell Titer-Glo, read-out: IC50 (μM) HCT, concentration for 50% inhibition of cell proliferation (Bulk IC50 value). As to the method: (§2) HCT-116 cells (derived from human colon adenocarcinoma), HT-29 cells (derived from human colon cancer), and FaDu cells (derived from human hypopharynx cancer) were obtained from American Type Culture Collection (ATCC). […] After cells were seeded at 300-600 cells/well onto black μClear-plate 384 well (Greiner bio-one Cat. No. 781091), a test substance was added such that the final concentration of DMSO is 0.1%, and cultured for 4 days. […] A test shown in Test example 1 was carried out for compounds obtained in the Examples.

The test system of test [3] is HT-29 cells. Briefly: Proliferation inhibition assay of cancer cells (Test Example 1), HT-29. To be noted: HT-29 cells, cultured for 4 days, Cell Titer-Glo, read-out: IC50 (μM) HT, concentration for 50% inhibition of cell proliferation (Bulk IC50 value). As to the method:
as §2

Test [4] concerns HT-29 cells. The experiment in a line: Inhibition assay of cancer cell sphere-forming ability (Test Example 2), HT-29. The conditions noted are these: HT-29 cells, Ultra-Low Attachment plate, serum-free DMEM/F12 with B27, EGF, bFGF, insulin, 4 days, Cell Titer-Glo, read-out: IC50 (μM) HT, concentration for 50% inhibition of cell proliferation (Sphere IC50 value). The procedure: as §1

Test [5] has as its system HCT-116 cells. Briefly: Inhibition assay of cancer cell sphere-forming ability (Test Example 2), HCT-116. To be noted: HCT-116 cells, Ultra-Low Attachment plate, serum-free DMEM/F12 with B27, EGF, bFGF, insulin, 4 days, Cell Titer-Glo, read-out: IC50 (μM) HCT, concentration for 50% inhibition of cell proliferation (Sphere IC50 value). As to the method: as §1
Test [6] deals with FaDu cells. Briefly: Proliferation inhibition assay of cancer cells (Test Example 1), FaDu. The conditions noted are these: FaDu cells, cultured for 4 days, Cell Titer-Glo, read-out: IC50 (μM) FaDu, concentration for 50% inhibition of cell proliferation (Bulk IC50 value). As to the method: as §2

Where only a bound is given, the exact number is not on record here.

By IC50 is commonly meant the point on the concentration scale where inhibition reaches its midpoint. Consider `CC(O)c1cc2c(s1)C(=O)c1cccnc1C2=O` (stereo not drawn) [Example 2, 2-(1-hydroxyethyl)thieno[2,3-g]quinoline-4,9-dione], for which the IC50 stood at 0.12 µM in the test with FaDu cells [1] (Homo sapiens, FaDu, 96 h); 0.08 µM in the test with HCT-116 cells [2] (Homo sapiens, HCT-116, 96 h); 0.86 µM in the test on HT-29 cells [3] (Homo sapiens, HT-29, 96 h); 0.55 µM in the test with HT-29 cells [4] (Homo sapiens, HT-29, 96 h); 0.23 µM with HCT-116 cells [5] (Homo sapiens, HCT-116, 96 h); 0.1 µM in the test on FaDu cells [6] (Homo sapiens, FaDu, 96 h).

For the compound `CN(C)C(=O)c1cc2c(s1)C(=O)c1cccnc1C2=O` [Example 3, N,N-dimethyl-4,9-dioxo-4,9-dihydrothieno[2,3-g]quinoline-2-carboxamide], the IC50 in the test on FaDu cells [1] (Homo sapiens, FaDu, 96 h) amounted to 0.05 µM; in the test with HCT-116 cells [2] (Homo sapiens, HCT-116, 96 h), 0.06 µM; in the test on HT-29 cells [3] (Homo sapiens, HT-29, 96 h) it was 0.56 µM; in the test with HT-29 cells [4] (Homo sapiens, HT-29, 96 h), 0.43 µM; in the test on HCT-116 cells [5] (Homo sapiens, HCT-116, 96 h), 0.05 µM; with FaDu cells [6] (Homo sapiens, FaDu, 96 h), 0.07 µM.

Consider `O=C1c2cc(CN3CCOCC3)sc2C(=O)c2cccnc21` [Example 4, 2-(morpholin-4-ylmethyl)thieno[2,3-g]quinoline-4,9-dione], for which the IC50 was determined as 0.34 µM in the test on FaDu cells [1] (Homo sapiens, FaDu, 96 h); 0.57 µM in the test on HCT-116 cells [2] (Homo sapiens, HCT-116, 96 h); 0.68 µM in the test on HT-29 cells [3] (Homo sapiens, HT-29, 96 h); 0.63 µM in the test on HT-29 cells [4] (Homo sapiens, HT-29, 96 h); 0.55 µM in the test with HCT-116 cells [5] (Homo sapiens, HCT-116, 96 h); 0.46 µM in the test on FaDu cells [6] (Homo sapiens, FaDu, 96 h).

As to `CCN(Cc1cc2c(s1)C(=O)c1cccnc1C2=O)C1CCCCC1` [Example 5, 2-{[cyclohexyl(ethyl)amino]methyl}thieno[2,3-g]quinoline-4,9-dione], the IC50 was determined as 0.5 µM with FaDu cells [1] (Homo sapiens, FaDu, 96 h); 0.45 µM in the test with HCT-116 cells [2] (Homo sapiens, HCT-116, 96 h); 0.92 µM with HT-29 cells [3] (Homo sapiens, HT-29, 96 h); 0.57 µM in the test with HT-29 cells [4] (Homo sapiens, HT-29, 96 h); 0.39 µM with HCT-116 cells [5] (Homo sapiens, HCT-116, 96 h); 0.54 µM with FaDu cells [6] (Homo sapiens, FaDu, 96 h).

On to `CCN(CCOC)Cc1cc2c(s1)C(=O)c1cccnc1C2=O` [Example 6, 2-{[ethyl(2-methoxyethyl)amino]methyl}thieno[2,3-g]quinoline-4,9-dione], for which the IC50 came to 0.33 µM in the test with FaDu cells [1] (Homo sapiens, FaDu, 96 h); 0.39 µM in the test on HCT-116 cells [2] (Homo sapiens, HCT-116, 96 h); 0.93 µM in the test with HT-29 cells [3] (Homo sapiens, HT-29, 96 h); 0.63 µM in the test on HT-29 cells [4] (Homo sapiens, HT-29, 96 h); 0.2 µM in the test on HCT-116 cells [5] (Homo sapiens, HCT-116, 96 h); 0.41 µM with FaDu cells [6] (Homo sapiens, FaDu, 96 h).

Consider `CCN(Cc1ccncc1)Cc1cc2c(s1)C(=O)c1cccnc1C2=O` [Example 7, 2-{[ethyl(pyridin-4-ylmethyl)amino]methyl}thieno[2,3-g]quinoline-4,9-dione], for which the IC50 worked out at 0.36 µM in the test on FaDu cells [1] (Homo sapiens, FaDu, 96 h); 0.4 µM in the test with HCT-116 cells [2] (Homo sapiens, HCT-116, 96 h); 2.64 µM with HT-29 cells [3]; 3.04 µM with HT-29 cells [4]; 0.51 µM in the test with HCT-116 cells [5] (Homo sapiens, HCT-116, 96 h); 0.4 µM in the test with FaDu cells [6] (Homo sapiens, FaDu, 96 h).

Take `CCN(Cc1ccncc1)Cc1cc2c(s1)C(=O)c1cccnc1C2=O` [Example 8, 2-{[ethyl(pyridin-4-ylmethyl)amino]methyl}thieno[2,3-g]quinoline-4,9-dione]: the IC50 came to 0.32 µM in the test on FaDu cells [1]; 0.38 µM in the test with HCT-116 cells [2]; 0.83 µM in the test on HT-29 cells [3]; 0.6 µM with HT-29 cells [4]; 0.41 µM in the test on HCT-116 cells [5]; 0.37 µM with FaDu cells [6].

For `CCN(Cc1cc2c(o1)C(=O)c1cccnc1C2=O)C(=O)CC(C)C` [Example 9, N-[(4,9-dioxo-4,9-dihydrofuro[2,3-g]quinolin-2-yl)methyl]-N-ethyl-3-methylbutanamide], the IC50 was 0.1 µM in the test with FaDu cells [1] (Homo sapiens, FaDu, 96 h); 0.53 µM in the test with HCT-116 cells [2] (Homo sapiens, HCT-116, 96 h); > 10 µM with HT-29 cells [3] (Homo sapiens, HT-29, 96 h); 0.61 µM with HT-29 cells [4] (Homo sapiens, HT-29, 96 h); 0.28 µM with HCT-116 cells [5] (Homo sapiens, HCT-116, 96 h); 0.6 µM in the test on FaDu cells [6] (Homo sapiens, FaDu, 96 h).

On to `CCN(Cc1cc2c(o1)C(=O)c1cccnc1C2=O)S(=O)(=O)CC(C)C` [Example 10, N-[(4,9-dioxo-4,9-dihydrofuro[2,3-g]quinolin-2-yl)methyl]-N-ethyl-2-methylpropane-1-sulfonamide], for which the IC50 turned out to be 0.09 µM in the test with FaDu cells [1] (Homo sapiens, FaDu, 96 h); 0.5 µM in the test with HCT-116 cells [2] (Homo sapiens, HCT-116, 96 h); 6.14 µM in the test on HT-29 cells [3] (Homo sapiens, HT-29, 96 h); 0.53 µM in the test with HT-29 cells [4] (Homo sapiens, HT-29, 96 h); 0.38 µM in the test with HCT-116 cells [5] (Homo sapiens, HCT-116, 96 h); 0.5 µM in the test with FaDu cells [6] (Homo sapiens, FaDu, 96 h).

The values above are taken from US10934309B2, “Tricyclic quinone derivative” (Boston Biomedical, Inc., priority 2014, dated 2021).
